Assay results: ChEMBL document CHEMBL5241075, “Advancement of chimeric hybrid drugs to cure malaria infection: An overview with special emphasis on endoperoxide pharmacophores” (Eur J Med Chem, 2021)
In brackets after ≈: the same amount, converted by molar mass.

Key:
Plasmodium falciparum [1] = assay: Antiplasmodial activity against Plasmodium falciparum Nigerian; assay type: functional, organism-based
[2] = test system: Plasmodium yoelii nigeriensis; assay: Antiplasmodial activity against Plasmodium yoelii nigeriensis infected in po dosed mouse assessed as reduction in parasitemia; assay type: functional
[3] = test system: Plasmodium yoelii nigeriensis; assay: Antiplasmodial activity against Plasmodium yoelii nigeriensis infected in sc dosed mouse assessed as reduction in parasitemia; assay type: functional
Plasmodium falciparum [4] = assay: Antimalarial activity against chloroquine resistant Plasmodium falciparum FcB1; assay type: functional, organism-based
Plasmodium falciparum [5] = assay: Antiplasmodial activity against Plasmodium falciparum F-32; assay type: functional, organism-based
Plasmodium vinckei [6] = assay: Antimalarial activity against Plasmodium vinckei infected in ip dosed mouse assessed as reduction in parasitemia; assay type: functional
Plasmodium vinckei [7] = assay: Antimalarial activity against Plasmodium vinckei infected in ip dosed mouse assessed as reduction in parasitemia relative to control; assay type: functional; set-up: scale not given: the % may be the effect or the level left
Plasmodium vinckei [8] = assay: Antimalarial activity against Plasmodium vinckei infected in po dosed mouse assessed as reduction in parasitemia; assay type: functional
Plasmodium vinckei [9] = assay: Antimalarial activity against Plasmodium vinckei infected in po dosed mouse assessed as reduction in parasitemia relative to control; assay type: functional; set-up: scale not given: the % may be the effect or the level left
Plasmodium falciparum [10] = assay: Antiplasmodial activity against Plasmodium falciparum FcM29; assay type: functional, organism-based
Plasmodium berghei [11] = assay: Antiplasmodial activity against Plasmodium berghei N infected in po dosed mouse assessed as reduction in parasitemia; assay type: functional
Plasmodium berghei [12] = assay: Antiplasmodial activity against Plasmodium berghei N infected in sc dosed mouse assessed as reduction in parasitemia; assay type: functional
Plasmodium falciparum [13] = assay: Antiplasmodial activity against Plasmodium falciparum NF54; assay type: functional, organism-based
Plasmodium falciparum [14] = assay: Antimalarial activity against erythrocytic stage chloroquine sensitive Plasmodium falciparum W2 infected in mouse assessed as reduction in parasitemia at 4 mg/kg/day, po qd measured after 4 days by Giemsa staining based analysis relative to control; assay type: functional; set-up: scale not given: the % may be the effect or the level left; details: time 4 day
Plasmodium falciparum [15] = assay: Antimalarial activity against erythrocytic stage chloroquine sensitive Plasmodium falciparum 3D7 infected in mouse assessed as reduction in parasitemia at 4 mg/kg/day, po qd measured after 4 days by Giemsa staining based analysis relative to control; assay type: functional; set-up: scale not given: the % may be the effect or the level left; details: time 4 day
Plasmodium vinckei [16] = assay: Antimalarial activity against chloroquine resistant Plasmodium vinckei infected in po dosed swiss mouse assessed as reduction in parasitemia; assay type: functional
[17] = test system: Plasmodium vinckei petteri; assay: Antimalarial activity against chloroquine sensitive Plasmodium vinckei petteri infected in po dosed swiss mouse assessed as reduction in parasitemia; assay type: functional
Plasmodium falciparum [18] = assay: Antiplasmodial activity against Plasmodium falciparum gametocytes assessed as inhibition of gametocyte activation by [3H]hypoxanthine incorporation assay; assay type: functional, organism-based
Plasmodium falciparum [19] = assay: Antimalarial activity against erythrocytic stage chloroquine sensitive Plasmodium falciparum W2 infected in mouse assessed as reduction in parasitemia at 54 mg/kg/day, po qd measured after 4 days by Giemsa staining based analysis relative to control; assay type: functional; set-up: scale not given: the % may be the effect or the level left; details: time 4 day
Plasmodium falciparum [20] = assay: Antiplasmodial activity against chloroquine resistant Plasmodium falciparum by HRP2 ELISA analysis; assay type: functional, organism-based
Plasmodium berghei [21] = assay: Antiplasmodial activity against Plasmodium berghei infected in mouse assessed as reduction in parasitemia at 13 mg/kg in presence of mefloquine relative to control; assay type: functional; set-up: scale not given: the % may be the effect or the level left
Plasmodium berghei [22] = assay: Antiplasmodial activity against Plasmodium berghei infected in mouse assessed as reduction in parasitemia at 6.8 mg/kg in presence of mefloquine relative to control; assay type: functional; set-up: scale not given: the % may be the effect or the level left
[23] = test system: Human immunodeficiency virus; assay: Antiviral activity against HIV; assay type: functional, organism-based; details: Human immunodeficiency virus 1
Plasmodium chabaudi = assay: Antiplasmodial activity against Plasmodium chabaudi infected in mouse assessed as survival rate relative to control; assay type: functional
Plasmodium falciparum [24] = assay: Antiplasmodial activity against Plasmodium falciparum K1; assay type: functional, organism-based; details: Plasmodium falciparum, K1; read-out: ED50 (the source's name)
Plasmodium falciparum [25] = assay: Antiplasmodial activity against Plasmodium falciparum 3D7; assay type: functional, organism-based; details: read-out: ED50 (the source's name)
Plasmodium falciparum [26] = assay: Potency index, ratio of artesunate IC50 to test compound IC50 for antiplasmodial activity against Plasmodium falciparum gametocytes by [3H]hypoxanthine incorporation assay; assay type: functional
Plasmodium falciparum [27] = assay: Antiplasmodial activity against Plasmodium falciparum gametocytes by [3H]hypoxanthine incorporation assay; assay type: functional, organism-based
Plasmodium falciparum [28] = assay: Potency index, ratio of mefloquine IC50 to test compound IC50 for antiplasmodial activity against Plasmodium falciparum gametocytes by [3H]hypoxanthine incorporation assay; assay type: functional

CC(C)C1=C[C@H]2OC3(CCC(NCCNc4cc(Cl)cc5cccnc45)CC3)OO[C@@]2(C)CC1.O=C(O)CC(O)(CC(=O)O)C(=O)O.O=C(O)CC(O)(CC(=O)O)C(=O)O (some centres undefined)
IC50 (Plasmodium falciparum [1]): 0.004 µM | CD50 [2]: 22 mg/kg/day | CD90 [2]: 44 mg/kg/day | ED50 ([2]; Plasmodium yoelii): 15 mg/kg/day | ED90 ([2]; Plasmodium yoelii): 23 mg/kg/day | CD50 [3]: 3 mg/kg/day | CD90 [3]: 12 mg/kg/day | ED50 ([3]; Plasmodium yoelii): 2 mg/kg/day | ED90 ([3]; Plasmodium yoelii): 5 mg/kg/day | IC50 (Plasmodium falciparum [4]): 0.004 µM | IC50 (Plasmodium falciparum [5]): 0.004 µM | ED50 (Plasmodium vinckei [6]): 5 mg/kg/day | Activity (Plasmodium vinckei [7]): 50% | ED50 (Plasmodium vinckei [8]): 18 mg/kg/day | Activity (Plasmodium vinckei [9]): 50% | IC50 (Plasmodium falciparum [10]): 0.004 µM

Cc1ccc(C2O[C@@H]3O[C@]4(C)CC[C@H]5[C@H](C)CC[C@@H]([C@H]2C)[C@@]35OO4)o1 (some centres undefined)
ED50 (Plasmodium berghei [11]): 15.5 mg/kg | ED50 (Plasmodium berghei [12]): 0.9 mg/kg | IC50 (Plasmodium falciparum [13]): 0.0052 µM

C[C@H]1[C@H](OC(=O)CCC(=O)O)O[C@@H]2O[C@@]3(C)CC[C@H]4[C@H](C)CC[C@@H]1[C@@]24OO3 [ARTESUNATE]
Activity (Plasmodium falciparum [14]): 89% | Activity (Plasmodium falciparum [15]): 28% | ED100 (Plasmodium vinckei [16]): 100 mg/kg/day | ED100 [17]: 32 mg/kg/day | IC50 (Plasmodium falciparum [18]): 300 µM | Activity (Plasmodium falciparum [19]): 100% | IC50 (Plasmodium falciparum [13]): < 0.0052 µM | IC50 (Plasmodium falciparum [20]): 0.00234 µM | IC90 (Plasmodium falciparum [20]): 0.00646 µM | IC99 (Plasmodium falciparum [20]): 0.0195 µM

C[C@@H]1CC[C@H]2[C@@H](C)C(CCC(=O)Nc3ccc(F)cc3)O[C@@H]3O[C@]4(C)CC[C@@H]1[C@]32OO4 (some centres undefined)
Activity (Plasmodium berghei [21]): 99.6% | Activity (Plasmodium berghei [22]): 99%

Cc1cn([C@H]2C[C@H](N=[N+]=[N-])[C@@H](CO[C@H]3OC4O[C@]5(C)CC[C@H]6[C@H](C)CC[C@@H]([C@H]3C)[C@@]46OO5)O2)c(=O)[nH]c1=O (some centres undefined)
IC50 [23]: 2.86 µM

C[C@@H]1CC[C@H]2[C@@H](C)C(CCc3ccc(C(=O)O)cc3)O[C@@H]3O[C@]4(C)CC[C@@H]1[C@]32OO4 (some centres undefined)
Survival (Plasmodium chabaudi): 100% | EC50 (Plasmodium falciparum [24]): 0.6 ng/mL (≈ 1.44 nM) | EC50 (Plasmodium falciparum [25]): 1.1 ng/mL (≈ 2.64 nM)

C[C@H]1[C@@H](OC(=O)CCC(=O)O)O[C@@H]2C[C@@]3(C)CC[C@H]4[C@H](C)CC[C@@H]1[C@@]24OO3.FC(F)(F)c1ccc2c(CC3CCCCN3)c3cccc(C(F)(F)F)c3nc2c1 (centres undefined)
Ratio (Plasmodium falciparum [26]): 15 | IC50 (Plasmodium falciparum [27]): 4600 µM | IC50 (Plasmodium falciparum [18]): 20 µM | Ratio (Plasmodium falciparum [28]): 280
